According to patent publication US9688683B2, “Substituted condensed pyrimidine compounds” (GRÜNENTHAL GMBH, priority 2013, dated 2017):

Molecular target: human PDE4B1 (Homo sapiens (Human), UniProt Q07343)
Assay: cAMP HTRF assay to determine the activity of hPDE4B1
Assay type: biochemical
Conditions: for inhibition at 3 µM: inhibition of PDE4B at a test substrate concentration of 3 μM; for IC50: human recombinant PDE4B1 expressed in Sf9 cells, cAMP 40 nM, N=1-2, n=2, read-out: PDE4B IC50-value
Protocol: A: Determination of the PDE4B IC50 Values with a cAMP HRTF® Assay to Determine the Activity of hPDE4B1
The inhibiting effect of the compounds on the enzyme activity of human PDE4B1 is measured by the quantification of 5′-AMP, which is formed from 3′,5′-adenosine monophosphate (cAMP). Human recombinant enzyme, expressed in Sf9 cells, and the HTRF (homogeneous time-resolved fluorescence) detection method are used in the assay.
The test compound or water (control) is mixed with the human recombinant PDE4B1 enzyme (4.8 U) in a buffer consisting of 44.4 mM tris-HCl, 5.28 mM MgCl2, 2.64 mM DTT and 0.044% Tween 20 (pH 7.8). After adding the cAMP enzyme substrate (final concentration 40 nM) the mixture is incubated for 30 minutes at room temperature. Then a fluorescence acceptor (Dye2 marked with cAMP), a fluorescence donor (anti-cAMP antibody marked with a europium cryptate) and the non-specific phosphodiesterase inhibitor IBMX (3-isobutyl-1-methylxanthine; final concentration 1 mM) are added. After 60 minutes the fluorescence transfer, which correlates with the amount of remaining cAMP, is measured with a microplate reader (Rubystar, BMG) at λex=337 nm, λem=620 nm and λem=665 nm. The enzyme activity is calculated from the quotient formed from the measured signal at 665 nm and that at 620 nm. The result is expressed as the percentage inhibition of enzyme activity of the control (without PDE4 inhibitor) (literature: N. Saldou et al., Comparison of recombinant human PDE4 isoforms: interaction with substrate and inhibitors, Cell. Signal. Vol. 10, No. 6, 427-440, 1998). The enzyme is omitted for measurement of the basal control.

human PDE4B1, sequence (Q07343 whole entry): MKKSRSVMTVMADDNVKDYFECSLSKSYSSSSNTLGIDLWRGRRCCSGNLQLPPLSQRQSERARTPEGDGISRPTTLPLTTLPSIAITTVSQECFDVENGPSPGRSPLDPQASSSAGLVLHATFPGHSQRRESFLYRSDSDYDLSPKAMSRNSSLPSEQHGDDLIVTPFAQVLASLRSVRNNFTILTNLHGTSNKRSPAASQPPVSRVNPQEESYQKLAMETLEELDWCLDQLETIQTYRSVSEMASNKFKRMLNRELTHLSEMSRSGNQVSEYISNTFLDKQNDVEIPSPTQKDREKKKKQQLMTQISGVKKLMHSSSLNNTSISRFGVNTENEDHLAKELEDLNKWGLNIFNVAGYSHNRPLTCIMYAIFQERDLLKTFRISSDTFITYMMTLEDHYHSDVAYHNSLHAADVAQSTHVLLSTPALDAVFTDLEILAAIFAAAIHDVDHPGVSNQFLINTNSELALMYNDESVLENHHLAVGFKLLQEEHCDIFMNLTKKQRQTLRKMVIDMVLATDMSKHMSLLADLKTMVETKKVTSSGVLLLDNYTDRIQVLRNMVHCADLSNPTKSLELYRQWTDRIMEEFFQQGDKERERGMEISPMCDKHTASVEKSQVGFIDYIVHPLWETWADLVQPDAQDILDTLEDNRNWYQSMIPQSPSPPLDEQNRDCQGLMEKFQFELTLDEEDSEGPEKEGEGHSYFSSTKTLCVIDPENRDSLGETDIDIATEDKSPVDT

| inhibition at 3 µM [%] | IC50 [nM] | Structure (SMILES) |
| --- | --- | --- |
| 43 |  | CCOc1cccc(-c2nc(CC)c3c(n2)N(c2ccc(C(=O)O)cc2)CC3)c1 [Compound 98, 4-(2-(3-Ethoxyphenyl)-4-ethyl-5H-pyrrolo[2,3-d]pyrimidin-7(6H)-yl)benzoic acid] |
|  | < 1000 | CCc1nc(-c2ccncc2)nc2c1ccn2-c1cccc(OCC(=O)N(C)C)c1 [Compound 82, 2-(3-(4-ethyl-2-(pyridin-4-yl)-7H-pyrrolo[2,3-d]pyrimidin-7-yl)phenoxy)-N,N-dimethylacetamide] |
| 41 |  | CCOc1ccc(-c2nc(CC)c3ccn(-c4cccc(OCC(=O)N(C)C)c4)c3n2)cc1 [Compound 95, 2-(3-(2-(4-Ethoxyphenyl)-4-ethyl-7H-pyrrolo[2,3-d]pyrimidin-7-yl)phenoxy)-N,N-dimethylacetamide] |
|  | 1000 to 10000 | CCc1nc(-c2ccc(OC)nc2)nc2c1ccn2-c1cccc(OCC(=O)N(C)C)c1 [Compound 77, 2-(3-(4-ethyl-2-(6-methoxypyridin-3-yl)-7H-pyrrolo[2,3-d]pyrimidin-7-yl)phenoxy)-N,N-dimethylacetamide] |
| 52 |  | CCc1nc(-c2ccc3c(c2)OCO3)nc2c1ccn2-c1cccc(OCC(=O)N(C)C)c1 [Compound 87, 2-(3-(2-(Benzo[d][1,3]dioxol-5-yl)-4-ethyl-7H-pyrrolo[2,3-d]pyrimidin-7-yl)phenoxy)-N,N-dimethylacetamide] |
|  | < 1000 | CCc1nc(-c2ccc(Cl)s2)nc2c1CCN2c1cccc(OCC(=O)N(C)C)c1 [Compound 40, 2-(3-(2-(5-chlorothiophen-2-yl)-4-ethyl-5H-pyrrolo[2,3-d]pyrimidin-7(6H)-yl)phenoxy)-N,N-dimethylacetamide] |
|  | < 1000 | CCc1nc(-c2cccnc2OC)nc2c1ccn2-c1cccc(OCC(=O)N(C)C)c1 [Compound 80, 2-(3-(4-ethyl-2-(2-methoxypyridin-3-yl)-7H-pyrrolo[2,3-d]pyrimidin-7-yl)phenoxy)-N,N-dimethylacetamide] |
|  | < 1000 | CCc1nc(-c2ccc(OC)c(F)c2)nc2c1CCN2c1cccc(OCC(=O)N(C)C)c1 [Compound 9, 2-(3-(4-Ethyl-2-(3-fluoro-4-methoxyphenyl)-5H-pyrrolo[2,3-d]pyrimidin-7(6H)-yl)phenoxy)-N,N-dimethylacetamide] |
| 67 |  | CCc1nc(-c2cncnc2)nc2c1ccn2-c1cccc(OCC(=O)N(C)C)c1 [Compound 97, 2-(3-(4-Ethyl-2-(pyrimidin-5-yl)-7H-pyrrolo[2,3-d]pyrimidin-7-yl)phenoxy)-N,N-dimethylacetamide] |
|  | 1000 to 10000 | COc1ccc(-c2ncc3c(n2)N(c2cccc(OCC(=O)N(C)C)c2)CC32CC2)cc1F [Compound 78, 2-(3-(2′-(3-fluoro-4-methoxyphenyl)spiro[cyclopropane-1,5′-pyrrolo[2,3-d]pyrimidin]-7′(6′H)-yl)phenoxy)-N,N-dimethylacetamide] |
|  | < 1000 | COc1ccc(-c2nc(C)c3ccn(-c4ccc(C(=O)O)cc4)c3n2)cc1F [Compound 1, 4-(2-(3-Fluoro-4-methoxyphenyl)-4-methyl-7H-pyrrolo[2,3-d]pyrimidin-7-yl)benzoic acid] |
|  | 1000 to 10000 | COc1ccc(-c2nc(C3CC3)c3ccn(-c4cccc(OCC(=O)N(C)C)c4)c3n2)cc1F [Compound 76, 2-(3-(4-cyclopropyl-2-(3-fluoro-4-methoxyphenyl)-7H-pyrrolo[2,3-d]pyrimidin-7-yl)phenoxy)-N,N-dimethylacetamide] |
|  | < 1000 | CCc1nc(-c2ccc(OC)c(F)c2)nc2c1ccn2-c1ccc(C(=O)O)cc1 [Compound 2, 4-(4-ethyl-2-(3-fluoro-4-methoxyphenyl)-7H-pyrrolo[2,3-d]pyrimidin-7-yl)benzoic acid] |
|  | 1000 to 10000 | CCc1nc(-c2ccc(OC)c(F)c2)nc2c1CCN2c1cccc(OCC(=O)N(C)CC2CC2)c1 [Compound 51, N-(cyclopropylmethyl)-2-(3-(4-ethyl-2-(3-fluoro-4-methoxyphenyl)-5H-pyrrolo[2,3-d]pyrimidin-7(6H)-yl)phenoxy)-N-methylacetamide] |
|  | < 1000 | CCc1nc(-c2cccc(S(C)(=O)=O)c2)nc2c1ccn2-c1cccc(OCC(=O)N(C)C)c1 [Compound 81, 2-(3-(4-ethyl-2-(3-(methylsulfonyl)phenyl)-7H-pyrrolo[2,3-d]pyrimidin-7-yl)phenoxy)-N,N-dimethylacetamide] |
|  | < 1000 | CCc1nc(-c2ccc(OC)c(F)c2)nc2c1ccn2-c1ccc(CC(=O)O)cc1 [Compound 4, 2,2,2-Trifluoroacetic acid compound with 2-(4-(4-ethyl-2-(3-fluoro-4-methoxyphenyl)-7H-pyrrolo[2,3-d]pyrimidin-7-yl)phenyl)acetic acid (1:1)] |
|  | 1000 to 10000 | COc1ccc(-c2nc(S(C)(=O)=O)c3ccn(-c4cccc(OCC(=O)N(C)C)c4)c3n2)cc1F [Compound 50, 2-(3-(2-(3-fluoro-4-methoxyphenyl)-4-(methylsulfonyl)-7H-pyrrolo[2,3-d]pyrimidin-7-yl)phenoxy)-N,N-dimethylacetamide] |

Continued, molecule first:

| Structure (SMILES) | inhibition at 3 µM [%] | IC50 [nM] |
| --- | --- | --- |
| COc1ccc(-c2nc(SC)c3ccn(-c4ccc(CC(=O)O)cc4)c3n2)cc1F [Compound 69, 2-(4-(2-(3-fluoro-4-methoxyphenyl)-4-(methylthio)-7H-pyrrolo[2,3-d]pyrimidin-7-yl)phenyl)acetic acid] |  | 1000 to 10000 |
| CCc1nc(-c2ccc3occc3c2)nc2c1CCN2c1ccc(CC(=O)O)cc1 [Compound 89, 2-(4-(2-(Benzofuran-5-yl)-4-ethyl-5H-pyrrolo[2,3-d]pyrimidin-7(6H)-yl)phenyl)acetic acid] | 63 |  |
| COc1ccc(-c2nc(C)c3c(n2)N(c2ccc(CC(=O)O)cc2)CC3C)cc1Cl (stereo not shown) [Compound 24, 2,2,2-Trifluoroacetic acid compound with 2-(4-(2-(3-chloro-4-methoxyphenyl)-4,5-dimethyl-5H-pyrrolo[2,3-d]pyrimidin-7(6H)-yl)phenyl)acetic acid (1:1)] |  | < 1000 |
| CCc1nc(-c2ccc(OC(F)F)cc2)nc2c1CCN2c1ccc(CC(=O)O)cc1 [Compound 90, 2-(4-(2-(4-(Difluoromethoxy)phenyl)-4-ethyl-5H-pyrrolo[2,3-d]pyrimidin-7(6H)-yl)phenyl)acetic acid] | 58 |  |
| CCc1nc(-c2ccc(OC)c(F)c2)nc2c1CCN2c1ccc(C(=O)O)cc1 [Compound 6, 4-(4-ethyl-2-(3-fluoro-4-methoxyphenyl)-5H-pyrrolo[2,3-d]pyrimidin-7(6H)-yl)benzoic acid] |  | 1000 to 10000 |
| CCc1nc(-c2ccc(F)c(Cl)c2)nc2c1CCN2c1ccc(CC(=O)O)cc1 [Compound 99, 2-(4-(2-(3-Chloro-4-fluorophenyl)-4-ethyl-5H-pyrrolo[2,3-d]pyrimidin-7(6H)-yl)phenyl)acetic acid] | 54 |  |
| COc1ccc(-c2nc(C)c3c(n2)N(c2ccc(CC(=O)O)cc2)CC3)cc1Cl [Compound 20, 2-(4-(2-(3-Chloro-4-methoxyphenyl)-4-methyl-5H-pyrrolo[2,3-d]pyrimidin-7(6H)-yl)phenyl)acetic acid] |  | < 1000 |
| CCOc1ccc(-c2nc(CC)c3c(n2)N(c2ccc(CC(=O)O)cc2)CC3)cc1 [Compound 96, 2-(4-(2-(4-Ethoxyphenyl)-4-ethyl-5H-pyrrolo[2,3-d]pyrimidin-7(6H)-yl)phenyl)acetic acid] | 39 |  |
| CCc1nc(-c2ccc(Cl)s2)nc2c1CCN2c1ccc(C(=O)O)cc1 [Compound 46, 4-(2-(5-chlorothiophen-2-yl)-4-ethyl-5H-pyrrolo[2,3-d]pyrimidin-7(6H)-yl)benzoic acid] |  | < 1000 |
| CCc1nc(-c2ccc(F)c(OC)c2)nc2c1CCN2c1ccc(CC(=O)O)cc1 [Compound 86, 2-(4-(4-Ethyl-2-(4-fluoro-3-methoxyphenyl)-5H-pyrrolo[2,3-d]pyrimidin-7(6H)-yl)phenyl)acetic acid] | 47 |  |
| CCc1nc(-c2ccc3occc3c2)nc2c1CCN2c1ccc(C(=O)O)cc1 [Compound 84, 4-(2-(Benzofuran-5-yl)-4-ethyl-5H-pyrrolo[2,3-d]pyrimidin-7(6H)-yl)benzoic acid] | 45 |  |
| CCc1nc(-c2ccc(OC)c(F)c2)nc2c1CCN2c1ccc(CC(=O)O)cc1 [Compound 8, 2-(4-(4-Ethyl-2-(3-fluoro-4-methoxyphenyl)-5H-pyrrolo[2,3-d]pyrimidin-7(6H)-yl)phenyl)-acetic acid] |  | < 1000 |
| Cc1nc(-c2ccc(Cl)s2)nc2c1ccn2-c1ccc(C(=O)O)cc1 [Compound 38, 4-(2-(5-Chlorothiophen-2-yl)-4-methyl-7H-pyrrolo[2,3-d]pyrimidin-7-yl)benzoic acid] |  | < 1000 |
| COc1ccc(-c2nc(C)c3c(n2)N(c2ccc(CC(=O)O)cc2)CC3)cc1F [Compound 7, 2-(4-(2-(3-Fluoro-4-methoxyphenyl)-4-methyl-5H-pyrrolo[2,3-d]pyrimidin-7(6H)-yl)phenyl)acetic acid] |  | < 1000 |
